Measured values: US7851599B2 (Philogen S.p.A., priority 2006, dated 2010)

Key:
[1] = system: human pancreatic cancer cell line DanG; experiment: Orthotopic DanG pancreatic cancer xenograft, tumor volume; assay type: in vivo, nude mice
[2] = molecular target: ED-B domain of fibronectin (Homo sapiens, UniProt P02751); conditions: cited from earlier work
ED-B domain of fibronectin, sequence (P02751 1271-1359 limits assumed): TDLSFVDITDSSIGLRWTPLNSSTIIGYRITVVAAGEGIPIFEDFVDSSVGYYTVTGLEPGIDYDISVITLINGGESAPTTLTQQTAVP

Compound	mice with complete remission ([1]; gemcitabine 250 mg/kg BW days 7, 14, L19IL2 4.29 MIU/kg BW days 8-12, 15-19, or both)	pancreatic tumor volume, % compared to control mice ([1]; gemcitabine i.p. 250 mg/kg BW once weekly (day 7 and 14), day 21) [%]	binding affinity for ED-B [2]
Nc1ccn([C@@H]2O[C@H](CO)[C@@H](O)C2(F)F)c(=O)n1 [gemcitabine, 2′-deoxy-2′,2′-difluorocytidine]	no complete remission	28	–
scFv L19: human homodimeric single chain Fv antibody fragment L19 specific for the ED-B domain of fibronectin	–	–	picomolar
